Values after ≈ are worked out from the molar mass of the structure shown.

LC50 and inhibition data for eight molecules are collected here from ChEMBL document CHEMBL1151145, “Minor Bioactive Polyacetylenes from Petrosia ficiformis” (J Nat Prod, 1990).

The nature of series [1]: Toxicity against Artemia salina after 24 hrs. The series is classed as organism-based. To be noted: in vivo.
A short description of series [2]: Inhibition of sea urchin egg development after 48 hrs. To be noted: echinoidea, sea urchin eggs.
Series [3] deals with Agrobacterium tumefaciens. Briefly: Inhibition of Agrobacterium tumefaciens-induced tumor formation in potato at 0.5 mg/ml by antitumor potato disk assay. The series is classed as functional.

For the molecule `C#CC(O)/C=C/CCCCCCCCCCCCCCCCCCCCCCCCCCCCCCCCC/C=C\C#CC(=O)OC` (stereo unspecified), the 50% lethal concentration (LC50) (usually the concentration lethal to half of the exposed cells or organisms) at 24 h in series [1] is 0.002 µg/mL (≈ 0.00306 µM).

With `C#C/C=C\CCCCCCCCCCCCCC/C=C\CC/C=C/C#CC(O)C#CCCCC/C=C\CCCCCC/C=C/C(O)C#C` (stereo unspecified), in series [2], the LC50 at 48 h amounted to 50 µg/mL (≈ 76.6 µM). The same molecule showed a median lethal concentration (LC50) at 24 h in series [1] of 0.0075 µg/mL (≈ 0.0115 µM). In addition, the inhibition (commonly the percentage by which the read-out fell short of the control) at 500 µg/mL in series [3] worked out at 43%.

On to `C#C/C=C\CCCCCCCCCCCCCC/C=C\CC/C=C/C#CC(O)C#CCCCC/C=C\CCCCCC/C=C/C(=O)C#C` (stereo unspecified), for which the LC50 at 24 h in series [1] is 0.04 µg/mL (≈ 0.0614 µM).

`C#CC(O)/C=C/CC/C=C\CCCC/C=C\CCC#CC(O)C#C/C=C/CC/C=C\CCCCCCCCCCCCC/C=C/C(O)C#C` (stereo unspecified) had an LC50 at 48 h in series [2] of 1 µg/mL (≈ 1.5 µM). The molecule also displayed an LC50 at 24 h in series [1] of 0.009 µg/mL (≈ 0.0135 µM). This molecule also showed an inhibition at 500 µg/mL in series [3] of 15%.

Molecule `C#C[C@@H](O)/C=C/CCCCCC/C=C\CCCCC#C[C@H](O)C#C/C=C/CC/C=C\CCCCCCCCCCCCC/C=C/[C@H](O)C#C` [PETROFORMYNE 1] showed an LC50 at 48 h in series [2] of 10 µg/mL (≈ 14.9 µM). This molecule had a median lethal concentration (LC50) at 24 h in series [1] of 0.014 µg/mL (≈ 0.0209 µM). This molecule also gave an inhibition at 500 µg/mL in series [3] of 35%.

Molecule `C#CCCCCCCCCCCCCCCCC/C=C\CC/C=C/C#C[C@@H](O)C#CCCCC/C=C\CCCCCC/C=C/[C@H](O)C#C` [PETROFORMYNE 3] displayed an LC50 at 48 h in series [2] of 10 µg/mL (≈ 15.3 µM). For the same molecule, in series [1], the LC50 at 24 h worked out at 0.003 µg/mL (≈ 0.00458 µM). In series [3], this molecule registered an inhibition at 500 µg/mL of 49%.

Consider `C#CCCCCCCCCCCCCCCCC/C=C\CC/C=C/C#CC(O)C#CCCCC/C=C\CCCCCC/C=C/C(=O)C#C` (stereo unspecified) [PETROFORMYNE 6], for which, in series [1], the LC50 at 24 h turned out to be 0.12 µg/mL (≈ 0.184 µM).

In series [1], `C#CC(O)/C=C/CCCCCCCCCCCCCCCCCCCCCCCCCCCCCCCCCCC/C=C\C#CC(=O)OC` (stereo unspecified) [PETROFORMYNE B] had an LC50 at 24 h of 0.0025 µg/mL (≈ 0.00367 µM).
